Test results published in patent publication US8252723B2, “Substituted 1-(3-pyridinyl)pyrazol-4-ylacetic acids, processes for their preparation and their use as herbicides and plant growth regulators” (Bayer CropScience AG, priority 2006, dated 2012).

Experiments:
[1] = system: summer wheat of the cultivar 'Triso'; test: Plant growth regulation test: culm stabilization of crop plants; assay type: in vivo; conditions: application rate of 30 to 300 g of active substance per hectare, treated at stage BBCH 31, culm length measured after ears had formed
In short: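 Wettable-powder formulation with adjuvant (1 l/ha) sprayed at 300 l water/ha onto pot-grown plants at BBCH 31, then kept outdoors. After ear formation culm length was measured; culm stabilization is expressed as percent of untreated control.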

[2] = system: weed plants such as Lolium multiflorum, Amaranthus retroflexus, Sinapis alba, Stellaria media and Setaria viridis; test: Post-emergence effect on weeds (greenhouse pot test, visual scoring); assay type: in vivo; conditions: application rate of 500 g or less of active substance per hectare, visual scoring after about 3 to 4 weeks vs untreated controls, read-out: herbicidal action (control)
[3] = system: weed plants such as Lolium multiflorum, Amaranthus retroflexus, Sinapis alba, Stellaria media and Setaria viridis; test: Pre-emergence effect on weeds (greenhouse pot test, visual scoring); assay type: in vivo; conditions: pre-emergence method, application rate of 1 kg or less of active substance per hectare, visual scoring after 3 to 4 weeks vs untreated controls; read-out: herbicidal action (control)
Description: Seeds or sections of rhizome from monocotyledonous and dicotyledonous weed plants were laid out in sandy loam soil in plastic pots, and covered with soil. The compounds according to the invention, formulated as wettable powders or emulsifiable concentrates, were then applied, in the form of aqueous suspensions or emulsions, at various dosages, onto the surface of the covering soil, at an application rate of 600 to 800 l of water/ha (converted).

Compound	longitudinal growth (culm length) of summer wheat [1]	pest or weed control at up to 500 g/ha [2]	pest or weed control at up to 1000 g/ha [3]	melting point
O=C(O)Cc1c(-c2ccccc2)nn(-c2cccnc2)c1-c1ccccc1 [Example 1-1, 3,5-diphenyl-1-(3-pyridyl)pyrazole-4-acetic acid]	effectively shortened	≥ 70%	≥ 70%	172 °C
COC(=O)Cc1c(C)nn(-c2cnccc2C)c1-c1ccccc1 [Example 2-10, Methyl [3-methyl-1-(4-methylpyridin-3-yl)-5-phenyl-1H-pyrazol-4-yl]acetate]	effectively shortened	≥ 70%	≥ 70%	–
Cc1nn(-c2cccnc2)c(-c2ccccc2)c1CC(=O)O [Example 1-2, 3-methyl-5-phenyl-1-(3-pyridyl)pyrazole-4-acetic acid]	effectively shortened	≥ 70%	≥ 70%	192 °C
COC(=O)Cc1c(C)nn(-c2cccnc2)c1-c1cccc(Cl)c1 [Example 2-17, Methyl [5-(3-chlorophenyl)-3-methyl-1-pyridin-3-yl-1H-pyrazol-4-yl]acetate]	effectively shortened	≥ 70%	≥ 70%	–
Cc1nn(-c2cccnc2)c(-c2cccc(Cl)c2)c1CC(=O)O [Example 1-17, [5-(3-Chlorophenyl)-3-methyl-1-pyridin-3-yl-1H-pyrazol-4-yl]acetic acid]	effectively shortened	≥ 70%	≥ 70%	–
Cc1ccncc1-n1nc(C)c(CC(=O)O)c1-c1ccccc1 [Example 1-10, [3-Methyl-1-(4-methylpyridin-3-yl)-5-phenyl-1H-pyrazol-4-yl]acetic acid]	effectively shortened	≥ 70%	≥ 70%	–
Cc1ccncc1-n1nc(C)c(CC(=O)OCC2CC2)c1-c1ccccc1 [Example 3-99, Cyclopropylmethyl [3-methyl-1-(4-methylpyridin-3-yl)-5-phenyl-1H-pyrazol-4-yl]acetate]	effectively shortened	≥ 70%	≥ 70%	–
COC(=O)Cc1c(C)nn(-c2cccnc2)c1-c1cccc(C)c1 [Example 2-119]	effectively shortened	–	–	–
C=C(Cl)COC(=O)Cc1cnn(-c2cccnc2)c1-c1ccccc1 [Example 3-207]	effectively shortened	–	–	–
COC(=O)Cc1c(C)nn(-c2cnccc2C)c1-c1cccc(C)c1 [Example 2-38]	effectively shortened	–	–	–
COC(=O)Cc1c(C)nn(-c2cccnc2)c1-c1cccs1 [Example 2-57]	effectively shortened	–	–	–
Cc1nn(-c2cccnc2)c(-c2ccc(O)nc2)c1CC(=O)OCC1CC1 [Example 3-87]	effectively shortened	–	–	–
C#CCOC(=O)Cc1c(C)nn(-c2cnccc2C)c1-c1ccccc1 [Example 3-76, Prop-2-yn-1-yl [3-methyl-1-(4-methylpyridin-3-yl)-5-phenyl-1H-pyrazol-4-yl]acetate]	effectively shortened	≥ 70%	≥ 70%	–
COC(=O)Cc1c(C)nn(-c2cccnc2)c1-c1ccccc1 [Example 2-2]	effectively shortened	–	–	–
Cc1nn(-c2cccnc2)c(-c2ccccc2)c1CC(=O)OCC1CC1(Cl)Cl (centres unmarked) [Example 3-113]	effectively shortened	–	–	–
C#CC(C)OC(=O)Cc1c(C)nn(-c2cccnc2)c1-c1ccccc1 (centres unmarked) [Example 3-140]	effectively shortened	–	–	–
COC(=O)Cc1c(C)nn(-c2cccnc2)c1-c1cccc(OC)n1 [Example 2-145]	effectively shortened	–	–	–
COC(=O)Cc1c(C)nn(-c2cnccc2C)c1-c1ccccc1Cl [Example 2-22]	effectively shortened	–	–	–

Compound	longitudinal growth (culm length) of summer wheat [1]	pest or weed control at up to 500 g/ha [2]	pest or weed control at up to 1000 g/ha [3]	melting point
C#CCOC(=O)Cc1cnn(-c2cccnc2)c1-c1ccccc1 [Example 3-64]	effectively shortened	–	–	–
COC(=O)Cc1c(CO)nn(-c2cccnc2)c1-c1ccc(Cl)cc1 [Example 2-184]	effectively shortened	–	–	–
Cc1nn(-c2cccnc2)c(-c2ccc(Cl)cc2)c1CC(=O)OC1COC1 [Example 3-232]	effectively shortened	–	–	–
COC(=O)Cc1c(C)nn(-c2cnccc2C)c1-c1ccc(Cl)cc1Cl [Example 2-23]	effectively shortened	–	–	–
Cc1csc(-c2c(CC(=O)O)c(C)nn2-c2cccnc2)c1 [Example 1-59]	effectively shortened	–	–	–
COC(=O)Cc1c(C)nn(-c2cccnc2)c1-c1ccc(Cl)nc1 [Example 2-134]	effectively shortened	–	–	–
Cc1ccc(-c2c(CC(=O)O)c(C)nn2-c2cccnc2)s1 [Example 1-61]	effectively shortened	–	–	–
Cc1ccncc1-n1nc(C)c(CC(=O)O)c1-c1ccc(Cl)c(Cl)c1 [Example 1-20]	effectively shortened	–	–	–
COc1ccc(-c2c(CC(=O)O)c(C)nn2-c2cccnc2)cc1 [Example 1-14]	effectively shortened	–	–	–
Cc1nn(-c2cnccc2Cl)c(-c2ccccc2)c1CC(=O)O [Example 1-30]	effectively shortened	–	–	–
Cc1nn(-c2ccc(Cl)nc2Cl)c(-c2ccccc2)c1CC(=O)O [Example 1-12]	effectively shortened	–	–	–
COC(=O)Cc1c(C)nn(-c2ccc(Cl)nc2)c1-c1ccccc1 [Example 2-7]	effectively shortened	–	–	–
Cc1csc(-c2c(CC(=O)O)c(C)nn2-c2cnccc2C)c1 [Example 1-54]	effectively shortened	–	–	–
CC#CCOC(=O)Cc1c(C)nn(-c2cccnc2)c1-c1ccc(Cl)cc1 [Example 3-118]	effectively shortened	–	–	–
COC(=O)Cc1cnn(-c2cnccc2C)c1-c1ccccc1 [Example 2-73]	effectively shortened	–	–	–
COC(=O)Cc1c(C2CC2)nn(-c2cccnc2)c1-c1ccc(Cl)cc1 [Example 2-146]	effectively shortened	–	–	–
COC(=O)Cc1c(C)nn(-c2cnccc2[S+](C)[O-])c1-c1ccc(Cl)cc1 (centres unmarked) [Example 2-64]	effectively shortened	–	–	–
